This is an account of results in patent US5807891A, “Antiviral ethers of aspartate protease substrate isosteres” (priority 1994, dated 1998).

Where two headings read alike, the source gives them in different places.

The test system of series [1] is H9/HIV-1/IIIB cells cocultured with CEM-SS cells. In words: Antiviral activity in coculture of CEM-SS cells and permanently infected H9/HIV-1/IIIB cells, RT activity. The format is cell-based. The settings on record: Human immunodeficiency virus 1, IIIB, 96 h; for inhibition at 0.0125 µM: 12.5 nM. As to the method:
The final concentration of free DMSO is less than 0.5%. When using cell lines: The cell lines are maintained in complete culture medium of the following composition: RPMI 1640 (GIBCO, Paisley, Scotland), supplemented with 10% foetal calf serum (SEROMED, Berlin, Germany), 10 mM 4-(2-hydroxyethyl)piperazine-1-ethanesulfonic acid(=HEPES) and 2 mM L-glutamine (AMIMED, Muttenz, Switzerland). […] The test compounds are tested as individual substances or as a combination of two active substances in defined concentration ratios. H9/HIV-1/IIIB cells are mixed, after having been washed twice and having been suspended in fresh medium, with CEM-SS cells in a ratio of 1:50. 100 μl of the cell mixture are dispensed into each well of 96-well tissue culture plates with the wells in each case containing 400 H9/HIV-1/IIIB cells and 2×10^4 CEM-SS cells. Immediately after the cells have been dispensed, two-fold serial dilutions of the test compounds are added (100 μl per well) in each case in sets of six. Instead of this, 100 μl of medium are added to each well for the virus control (VC); CEM-SS cells on their own (without H9/HIV-1/IIIB cells) are used as the control (CC). The final volume is 200 μl/well. […] The virus production is determined as the virus-associated activity of the reverse transcriptase (RT) in accordance with the following method, which has already been described above (see […]., et al., Antimicrob. Agent Chemother. 37(10), 2087-92 (1993)): When carrying out the measurement, 30 μl of reverse transcriptase cocktail are added to each well. The reverse transcriptase cocktail consists of 50 mM Tris (α,α,α-tris(hydroxymethyl)methylamine, Ultra pur, Merck, Germany), pH 7.8; 75 mM KCl, 2 mM dithiothreitol, 5 mM MgCl2; 0.1% Nonidet P-40 (detergent; Sigma, Switzerland), 0.8 mM EDTA, 10 μg/ml poly-A (Pharmacia, Uppsala, Sweden) and 0.16 μg/ml oligo(T)(=pdT(12-18), Pharmacia, Uppsala, Sweden) as template primer. The mixture is filtered through a 0.45 μm Acrodisc filter (Gelman Sciences Inc., Ann Arbor, U.S.A.) and stored at -20° C. […] After mixing, the plate is incubated at 37° C. for 1.5 h. 5 μl of the reaction mixture are transferred to DE81 paper (Whatman, one filter per well). The dried filters are washed three times for 5 min with 300 mM NaCl/25 mM trisodium citrate and then once with ethanol, and air-dried once again. The radioactivity on the filters is measured in a Packard Matrix 96-well counter (Packard, Zurich, Switzerland). The antiretroviral effect is given as the % reduction in RT activity as compared with the VC values. The activities of the individual compounds, and the combinations, mentioned in the title, in the coculture of the CEM-SS cell line and the permanently infected cell line H9/HIV-1/IIIB are determined using the method described above in association with the description of the pharmacological properties. The measurement result is expressed as % reduction of the reverse transcriptase (RT) activity. The results are presented in the following table; measurement results which confirm the occurrence of synergism are emphasized by underlining: […]

For series [2], the system named is HIV-1/LAV in human peripheral mononuclear blood cells. In words: Antiviral activity in peripheral mononuclear blood cells infected with HIV-1, cumulative RT activity. In kind it is cell-based. The source says:
For the experiments using peripheral mononuclear blood cells, the cells are isolated from the blood of healthy HIV-seronegative human subjects using a combination of leukaphoresis and counter-current centrifugal elutriation in accordance with known methods (see Alteri, E., et al., Antimicrob. Agent Chemother. 37(10), 2087-92 (1993)).
The lymphocytotrophic isolate HIV-1/LAV (LAV.04/A.301), for example, is used as the virus (see Science 220, 868-71 (1983)).
The final concentration of free DMSO is less than 0.5%.
When peripheral mononuclear blood cells are used: The mixture of mononuclear cells (lymphocytes and monocytes), which is obtained as described above, is cultured, in the presence of 0.25 μg/ml phytohaemagglutinin (Wellcome Diagnostics, Temple Hill, Dartford, England), for two days in RPMI-1640 (GIBCO, Paisley, Scotland), 50 mU/ml penicillin, 50 μg/ml streptomycin (ANIMED, Muttenz, Switzerland), 2 mM L-glutamine (AMIMED, Muttenz, Switzerland) and 10 mM HEPES buffer (GIBCO, Paisley, Scotland). Successful activation is monitored by measuring the increase in cell size (scattergram, FCM analysis). The cells are resuspended in complete medium containing 10% human AB serum (Sigma, St. Louis, U.S.A.) and infected with HIV-1 for 6 h. After the viral adsorption, the cells are washed and resuspended in complete medium which is supplemented with 100 U/ml human recombinant IL-2 (Genzyme, Cambridge, U.S.A.). 9×10^4 cells are plated out per well (0.3 ml) in 96-well plates having U-shaped well bottoms. The antiviral compounds are added either alone or in combination to sets of five cell cultures in each case (pentaplicates) directly following the infection. Two thirds of the culture medium with or without antiviral compound(s) are replaced every three days. The test is concluded on day 13 after infection. The progress of the viral infection is measured by determining the RT activity as described above for the cell lines.
The activities of the individual compounds, and the combinations, specified in the title, in the peripheral mononuclear blood cell culture are determined using the method described above in association with the description of the pharmacological properties. The measurement result is expressed as the cumulative activity of the reverse transcriptase (RT), in cpm/1.25 μl (number of measured ^32 P disintegrations per 1.25 μl of test mixture and minute) on day 17 after the infection. […] The test compound(s) is/are re-added in associated with each change of the medium (on days 0, 3, 6, 10 and 13): […]

In series [3] the test system is CD4 lymphocytes in the blood. Particulars: AIDS patients; cited from earlier work.
Series [4] concerns viral replication. The settings on record: cited from earlier work.
Series [5] relates to HIV protease. Particulars: cited from earlier work.
For series [6] the following is noted: in vivo; cited from earlier work.
The conditions of series [7]: in vivo, po; cited from earlier work.

For the compound `COCCNC(=O)[C@@H](NC(=O)[C@H](Cc1ccc(OC)c(OC)c1OC)C[C@H](O)[C@H](Cc1ccccc1)NC(=O)OC(C)(C)C)C(C)C` [Example 47, 5(S)-(Boc-Amino)-4(S)-hydroxy-6-phenyl-2(R)-[(2,3,4-trimethoxyphenyl)methyl]hexanoyl-(L)-Val-N-(2-methoxyethyl)amide], the inhibition at 0.003125 µM in series [1] (3.125 nM, coculture, day 4, read-out: % Inhibition of the RT activity by Example 47 title compound alone) was 2.7%. In addition, in series [1] (6.25 nM, coculture, day 4, read-out: % Inhibition of the RT activity by Example 47 title compound alone), the inhibition at 0.00625 µM stood at 1.3%. In addition, the inhibition at 0.0125 µM in series [1] (coculture, day 4, read-out: % Inhibition of the RT activity by Example 47 title compound alone) was 52%. For the same compound, the “Cumulative RT activity on day 17 after the infection” value is reported as 7909 cpm/μl in series [2] (Example 47 concentration 7.5 alone (unit not given)); 9132 cpm/μl in series [2] (Example 47 concentration 15 alone (unit not given)); 8457 cpm/μl in series [2] (Example 47 concentration 30 alone (unit not given)); 1823 cpm/μl in series [2] (Example 47 concentration 60 alone (unit not given)); 49 cpm/μl in series [2] (Example 47 concentration 120 alone (unit not given)).

On to `CC(C)(C)NC(=O)[C@@H]1CN(Cc2cccnc2)CCN1C[C@@H](O)C[C@@H](Cc1ccccc1)C(=O)N[C@H]1c2ccccc2C[C@H]1O` [Indinavir], for which the inhibition at 0.0125 µM in series [1] (coculture, day 4, read-out: % Inhibition of the RT activity by Indinavir alone) was determined as 3.2%. The inhibition at 0.025 µM in series [1] (25 nM, coculture, day 4, read-out: % Inhibition of the RT activity by Indinavir alone) stood at 59.7%.

With `CC(C)(C)NC(=O)[C@@H]1C[C@@H]2CCCC[C@@H]2CN1C[C@@H](O)[C@H](Cc1ccccc1)NC(=O)[C@H](CC(N)=O)NC(=O)c1ccc2ccccc2n1` [Saquinavir, N-tert-butyldecahydro-2-[2(R)-hydroxy-4-phenyl-3(S)-[[N-2-quinolylcarbonyl-L-asparaginyl]amino]butyl]-(4aS,8aS)-isoquinoline-3(S)-carboxamide], the “surrogate marker (titre of the CD4 lymphocytes in the blood)” value in series [3] is recorded as “first positive effects”. In addition, the “viral replication in cell experiments” value in series [4] is recorded as “suppressed viral replication”. In addition, in series [5], the “effect on HIV protease in vitro” value is given as “inhibitory effect”. The figures for the blood levels entry in series [6] and in series [7] were “useful blood levels were also achieved” and “useful blood levels were achieved”, respectively. Besides, the inhibition at 0.00626 µM in series [1] (read-out: % Inhibition of the RT activity by Saquinavir alone) worked out at 93.8%. In series [1] (read-out: % Inhibition of the RT activity by Saquinavir alone, 0.78 nM, coculture, day 4), the inhibition at 0.00078 µM worked out at 6.6%. Besides, the inhibition at 0.00156 µM in series [1] (read-out: % Inhibition of the RT activity by Saquinavir alone, 1.56 nM, coculture, day 4) was 14.7%. The inhibition at 0.003125 µM in series [1] (read-out: % Inhibition of the RT activity by Saquinavir alone, 3.125 nM, coculture, day 4) came out at 39.3%.
